Measured values published in patent publication US8658568B2, “6-amino-2-substituted-5-vinylsilylpyrimidine-4-carboxylic acids and esters and 4-amino-6-substituted-3-vinylsilylpyridine-2-carboxylic acids and esters as herbicides” (Dow AgroSciences, LLC., priority 2011, dated 2014).

Columns and labels:
[1] = test system: CHEAL = lambsquarters (Chenopodium album); test: Postemergence herbicidal activity, lambsquarters; type: in vivo; conditions: post-emergence, 336 h, post-emergent, rate 140 g ai/ha, visual score after 14 days (0 no injury, 100 complete kill), read-out: % Growth Reduction CHEAL
Protocol: (§1) Evaluation of Postemergence Herbicidal Activity
(§2) Seeds or nutlets of the desired test plant species were planted in Sun Gro MetroMix® 306 planting mixture, which typically has a pH of 6.0 to 6.8 and an organic matter content of about 30 percent, in plastic pots with a surface area of 64 square centimeters. When required to ensure good germination and healthy plants, a fungicide treatment and/or other chemical or physical treatment was applied. The plants were grown for 7-21 days in a greenhouse with an approximate 15 hour photoperiod which was maintained at about 23-29° C. during the day and 22-28° C. during the night. Nutrients and water were added on a regular basis and supplemental lighting was provided with overhead metal halide 1000-Watt lamps as necessary. The plants were employed for testing when they reached the first or second true leaf stage.
(§3) A weighed amount, determined by the highest rate to be tested, of each test compound was placed in a 25 mL glass vial and was dissolved in 4 mL of a 97:3 v/v (volume/volume) mixture of acetone and dimethyl sulfoxide (DMSO) to obtain concentrated stock solutions. […] The concentrated stock solutions obtained were diluted with 20 mL of an aqueous mixture containing acetone, water, isopropyl alcohol, DMSO, Atplus 411F crop oil concentrate, and Triton® X-155 surfactant in a 48.5:39:10:1.5:1.0:0.02 v/v ratio to obtain spray solutions containing the highest application rates. Additional application rates were obtained by serial dilution of 12 mL of the high rate solution into a solution containing 2 mL of 97:3 (v/v) mixture of acetone and dimethyl sulfoxide (DMSO) and 10 mL of an aqueous mixture containing acetone, water, isopropyl alcohol, DMSO, Atplus 411F crop oil concentrate, and Triton X-155 surfactant in a 48.5:39:10:1.5:1.0:0.02 (v/v) ratio to obtain 1/2 ×, 1/4 ×, 1/8× and 1/16× rates of the high rate. Compound requirements are based upon a 12 mL application volume at a rate of 187 L/ha. Formulated compounds were applied to the plant material with an overhead Mandel track sprayer equipped with a 8002E nozzles calibrated to deliver 187 L/ha over an application area of 0.503 square meters at a spray height of 18 inches (43 cm) above the average plant canopy height. Control plants were sprayed in the same manner with the solvent blank.
(§4) The treated plants and control plants were placed in a greenhouse as described above and watered by sub-irrigation to prevent wash-off of the test compounds. After 14 days, the condition of the test plants as compared with that of the untreated plants was determined visually and scored on a scale of 0 to 100 percent where 0 corresponds to no injury and 100 corresponds to complete kill
(§5) By applying the well-accepted probit analysis as described by J. Berkson in Journal of the […], 48, 565 (1953) and by D. Finney in “Probit Analysis” Cambridge University Press (1952), the above data can be used to calculate GR50 and GR80 values, which are defined as growth reduction factors that correspond to the effective dose of herbicide required to kill or control 50 percent or 80 percent, respectively, of a target plant.

[2] = test system: EPHHL = wild poinsettia (Euphorbia heterophylla); test: Postemergence herbicidal activity, wild poinsettia; type: in vivo; conditions: post-emergence, 336 h, post-emergent, rate 140 g ai/ha, visual score after 14 days (0 no injury, 100 complete kill), read-out: % Growth Reduction EPHHL
Protocol: as §1, §2, §3, §4, §5

[3] = test system: ABUTH = velvetleaf (Abutilon theophrasti); test: Postemergence herbicidal activity, velvetleaf; type: in vivo; conditions: post-emergence, 336 h, post-emergent, rate 140 g ai/ha, visual score after 14 days (0 no injury, 100 complete kill), read-out: % Growth Reduction ABUTH
Protocol: as §1, §2, §3, §4, §5

[4] = test system: AMARE = redroot pigweed (Amaranthus retroflexus); test: Postemergence herbicidal activity, redroot pigweed; type: in vivo; conditions: post-emergence, 336 h, post-emergent, rate 140 g ai/ha, visual score after 14 days (0 no injury, 100 complete kill), read-out: % Growth Reduction AMARE
Protocol: as §1, §2, §3, §4, §5

[5] = test system: ECHCG = barnyardgrass (Echinochloa crus-galli); test: Postemergence herbicidal activity, barnyardgrass; type: in vivo; conditions: post-emergence, 336 h, post-emergent, rate 140 g ai/ha, visual score after 14 days (0 no injury, 100 complete kill), read-out: % Growth Reduction ECHCG
Protocol: as §1, §2, §3, §4, §5

[6] = test system: IPOHE = ivyleaf morningglory (Ipomoea hederacea); test: Postemergence herbicidal activity, ivyleaf morningglory; type: in vivo; conditions: post-emergence, 336 h, post-emergent, rate 140 g ai/ha, visual score after 14 days (0 no injury, 100 complete kill), read-out: % Growth Reduction IPOHE
Protocol: as §1, §2, §3, §4, §5

[7] = test system: HELAN = sunflower (Helianthus annuus); test: Postemergence herbicidal activity, sunflower; type: in vivo; conditions: post-emergence, 336 h, post-emergent, rate 140 g ai/ha, visual score after 14 days (0 no injury, 100 complete kill), read-out: % Growth Reduction HELAN
Protocol: as §1, §2, §3, §4, §5

SMILES	pest or weed control at 140 g/ha [1] [%]	pest or weed control at 140 g/ha [2] [%]	melting point [°C]	pest or weed control at 140 g/ha [3] [%]	pest or weed control at 140 g/ha [4] [%]	pest or weed control at 140 g/ha [5] [%]	pest or weed control at 140 g/ha [6] [%]	pest or weed control at 140 g/ha [7] [%]
COC(=O)c1nc(-c2ccc(Cl)cc2)c(F)c(N)c1/C=C/[Si](C)(C)C [Compound 12, (E)-Methyl 4-amino-6-(4-chlorophenyl)-5-fluoro-3-(2-(trimethylsilyl)vinyl)picolinate]	100	80	113 to 115	90	75	0	0	90
COc1c(Cl)ccc(-c2nc(N)c(/C=C/[Si](C)(C)C)c(C(=O)O)n2)c1F [Compound 6, (E)-6-amino-2-(4-chloro-2-fluoro-3-methoxyphenyl)-5-(2-(trimethylsilyl)vinyl)pyrimidine-4-carboxylicacid]	100	100	108 to 110	100	100	100	95	100
